Tests used:
[1] = system: homogentisic acid (HGA); assay: Urinary excretion of HGA over 24 hours (u-HGA24), dose-response study in patients with AKU; assay type: in vivo, human; details: for Relative decrease in u-HGA24, max / Relative decrease in u-HGA24, mean / Relative decrease in u-HGA24, median / Relative decrease in u-HGA24, min: baseline to week 4, N = 8
Experimental: A randomized, open-label, parallel-group dose-response study with a no-treatment control group was performed. Patients with AKU were randomized to receive either 1 mg, 2 mg, 4 mg or 8 mg nitisinone once daily (oral administration) or no treatment (control). Forty patients were randomized, equally distributed amongst the five groups (8 patients per group). Nitisinone was administered as an oral suspension containing 4 mg/mL. The following dose volumes were administered once daily, in the morning: Urinary excretion of HGA over a 24-hour period (u-HGA24) was assessed at weeks 0, 2 and 4. Urine was collected into 2.5-L bottles containing 30 mL of 5N H2SO4. The exact length of the collection interval and the volume of the collected urine were recorded. The concentration of HGA in the urine was measured by liquid chromatography tandem mass spectrometry (LCMSMS). The 24-hour excretion of HGA was calculated by multiplying the concentration with the volume of the collected urine, and correcting for any deviation from a 24-hour collection period. (There were no reports of missed samples within the collection interval.)

[2] = system: homogentisic acid (HGA); assay: Serum HGA (s-HGA) 24-hour profile, dose-response study in patients with AKU; assay type: in vivo, human; details: for Patients with no quantifiable serum HGA concentration in any sample over the 24-hour dosage interval: group of 8 patients, LLOQ 3.1 μmol/L
Experimental: A randomized, open-label, parallel-group dose-response study with a no-treatment control group was performed. Patients with AKU were randomized to receive either 1 mg, 2 mg, 4 mg or 8 mg nitisinone once daily (oral administration) or no treatment (control). Forty patients were randomized, equally distributed amongst the five groups (8 patients per group). Nitisinone was administered as an oral suspension containing 4 mg/mL. The following dose volumes were administered once daily, in the morning: Measurements of serum HGA (s-HGA) and tyrosine (s-Tyr) concentrations were performed at weeks 0, 2 and 4. At all visits a full 24-hour profile was determined at the following time-points: pre-dose (immediately after breakfast) and 0.5, 1,2, 3, 4, 6, 8, 10, 12, 15, 18,24 hours post-dose. The concentrations of HGA and tyrosine in the serum were measured by liquid chromatography tandem mass spectrometry (LCMSMS). The lower limit of quantification (LLOQ) for HGA was 3.1 μmol/L. Maximum and daily average serum concentrations of HGA and tyrosine were determined. The daily average concentrations were determined by dividing the area under the concentration vs. time curves, calculated by means of the trapezoidal rule, by 24.

[3] = system: homogentisic acid (HGA); details: 2 mg/day, 36 months, AKU patients; cited from earlier work
[4] = system: patients with AKU; details: 2 mg/day, 36 months; cited from earlier work
[5] = system: tyrosine; details: 2 mg daily, 20 patients, no diet restrictions, 3-year study; cited from earlier work
[6] = system: patients with HT-1; details: cited from earlier work
[7] = 1 mg once daily oral, Week 0 (baseline), N = 8
[8] = 1 mg once daily oral, Week 4, N = 8
[9] = 2 mg once daily oral, Week 0 (baseline), N = 8
[10] = 2 mg once daily oral, Week 4, N = 8
[11] = 4 mg once daily oral, Week 0 (baseline), N = 8
[12] = 4 mg once daily oral, Week 4, N = 8
[13] = 8 mg once daily oral, Week 0 (baseline), N = 8
[14] = 8 mg once daily oral, Week 4, N = 8

In the case of O=C1CCCC(=O)C1C(=O)c1ccc(C(F)(F)F)cc1[N+](=O)[O-] [nitisinone, 2-[2-nitro-4-(trifluoromethyl)benzoyl]-1,3-cyclohexanedione], the “u-HGA24, max” value [1, 7] was 69502.9 μmol/24h, the “u-HGA24, mean” value [1, 7] was 36757.0 μmol/24h and the “u-HGA24, median” value [1, 7] was 34034.4 μmol/24h. The “u-HGA24, min” value [1, 7] was 20743.4 μmol/24h, the “u-HGA24, max” value [1, 8] was 6752.8 μmol/24h and the “u-HGA24, mean” value [1, 8] was 3931.0 μmol/24h. The “u-HGA24, median” value [1, 8] was 3415.6 μmol/24h, the “u-HGA24, min” value [1, 8] was 1847.6 μmol/24h and the “Relative decrease in u-HGA24, max” value ([1]; 1 mg once daily oral) was 91.05%. The “Relative decrease in u-HGA24, mean” value ([1]; 1 mg once daily oral) was 88.72%, the “Relative decrease in u-HGA24, median” value ([1]; 1 mg once daily oral) was 87.99% and the “u-HGA24, max” value [1, 9] was 40747.2 μmol/24h. The “u-HGA24, mean” value [1, 9] was 31439.8 μmol/24h, the “u-HGA24, median” value [1, 9] was 31754.7 μmol/24h and the “u-HGA24, min” value [1, 9] was 19994.2 μmol/24h. For the same molecule, the “u-HGA24, max” value [1, 10] was 3484.1 μmol/24h, the “u-HGA24, mean” value [1, 10] was 1602.5 μmol/24h and the “u-HGA24, median” value [1, 10] was 1515.6 μmol/24h. For the same molecule, the “u-HGA24, min” value [1, 10] was 627.0 μmol/24h, the “Relative decrease in u-HGA24, max” value ([1]; 2 mg once daily oral) was 96.86% and the “Relative decrease in u-HGA24, mean” value ([1]; 2 mg once daily oral) was 94.78%. For the same molecule, the “Relative decrease in u-HGA24, median” value ([1]; 2 mg once daily oral) was 95.64%, the “Relative decrease in u-HGA24, min” value ([1]; 2 mg once daily oral) was 89.08% and the u-HGA24 ([1]; 2 mg or higher per day, with one exception) was “less than 2000 μmol”. For the same molecule, the “u-HGA24, max” value [1, 11] was 55393.9 μmol/24h, the “u-HGA24, mean” value [1, 11] was 35453.4 μmol/24h and the “u-HGA24, median” value [1, 11] was 31502.7 μmol/24h. For the same molecule, the “u-HGA24, min” value [1, 11] was 14442.9 μmol/24h, the “u-HGA24, max” value [1, 12] was 1478.4 μmol/24h and the “u-HGA24, mean” value [1, 12] was 733.8 μmol/24h. The “u-HGA24, median” value [1, 12] was 790.5 μmol/24h, the “u-HGA24, min” value [1, 12] was 164.2 μmol/24h and the “Relative decrease in u-HGA24, max” value ([1]; 4 mg once daily oral) was 99.41%. The “Relative decrease in u-HGA24, mean” value ([1]; 4 mg once daily oral) was 98.15%, the “Relative decrease in u-HGA24, median” value ([1]; 4 mg once daily oral) was 98.19% and the “Relative decrease in u-HGA24, min” value ([1]; 4 mg once daily oral) was 96.74%. For the same molecule, the “u-HGA24, max” value [1, 13] was 32896.6 μmol/24h, the “u-HGA24, mean” value [1, 13] was 27353.5 μmol/24h and the “u-HGA24, median” value [1, 13] was 28728.7 μmol/24h. The “u-HGA24, min” value [1, 13] was 17075.1 μmol/24h, the “u-HGA24, max” value [1, 14] was 223.0 μmol/24h and the “u-HGA24, mean” value [1, 14] was 146.3 μmol/24h. The “u-HGA24, median” value [1, 14] was 140.4 μmol/24h, the “u-HGA24, min” value [1, 14] was 83.1 μmol/24h and the “Relative decrease in u-HGA24, max” value ([1]; 8 mg once daily oral) was 99.70%. The “Relative decrease in u-HGA24, mean” value ([1]; 8 mg once daily oral) was 99.41%, the “Relative decrease in u-HGA24, median” value ([1]; 8 mg once daily oral) was 99.52% and the “Relative decrease in u-HGA24, min” value ([1]; 8 mg once daily oral) was 98.69%. The “Decrease of urinary excretion of HGA (up to)” value ([1]; 8 mg per day (highest dose)) was greater than 99%, the “Suppression of the formation of HGA, estimated” value ([1]; 10 mg per day, estimated) was “almost completely” and the “Decrease of u-HGA in a majority of patients, estimated by extrapolation” value ([1]; 15 mg per day, extrapolation) was “about 99.9%”. For the same molecule, the “Suppression of the formation of HGA” value ([1]; considerably higher doses than previously used in alkaptonuria) was “more than 99%”, the “u-HGA24 of one patient” value ([1]; one patient on 2 mg, week 4) was 3484 µmol and the “Daily average serum concentration of HGA, max” value [2, 7] was 44.1 µmol/L. The “Daily average serum concentration of HGA, mean” value [2, 7] was 34.2 µmol/L, the “Daily average serum concentration of HGA, median” value [2, 7] was 33.0 µmol/L and the “Daily average serum concentration of HGA, min” value [2, 7] was 25.5 µmol/L. The “Daily average serum concentration of HGA, max” value [2, 8] was 7.3 µmol/L, the “Daily average serum concentration of HGA, mean” value [2, 8] was 4.1 µmol/L and the “Daily average serum concentration of HGA, median” value [2, 8] was 3.9 µmol/L. The “Daily average serum concentration of HGA, min” value [2, 8] was 3.1 µmol/L, the “Daily average serum concentration of HGA, max” value [2, 9] was 59.1 µmol/L and the “Daily average serum concentration of HGA, mean” value [2, 9] was 36.6 µmol/L. For the same molecule, the “Daily average serum concentration of HGA, median” value [2, 9] was 34.2 µmol/L, the “Daily average serum concentration of HGA, min” value [2, 9] was 25.1 µmol/L and the “Daily average serum concentration of HGA, max” value [2, 10] was 5.8 µmol/L. The “Daily average serum concentration of HGA, median” value [2, 10] was less than 3.1 µmol/L, the “Daily average serum concentration of HGA, min” value [2, 10] was less than 3.1 µmol/L and the “Patients with no quantifiable serum HGA concentration in any sample over the 24-hour dosage interval” value ([2]; 2 mg) was 3. The “Daily average serum concentration of HGA, max” value [2, 11] was 49.9 µmol/L, the “Daily average serum concentration of HGA, mean” value [2, 11] was 38.5 µmol/L and the “Daily average serum concentration of HGA, median” value [2, 11] was 37.7 µmol/L. The “Daily average serum concentration of HGA, min” value [2, 11] was 28.9 µmol/L, the “Daily average serum concentration of HGA, max” value [2, 12] was less than 3.1 µmol/L and the “Daily average serum concentration of HGA, median” value [2, 12] was less than 3.1 µmol/L. For the same molecule, the “Daily average serum concentration of HGA, min” value [2, 12] was less than 3.1 µmol/L, the “Patients with no quantifiable serum HGA concentration in any sample over the 24-hour dosage interval” value ([2]; 4 mg) was 4 and the “Daily average serum concentration of HGA, max” value [2, 13] was 47.7 µmol/L. For the same molecule, the “Daily average serum concentration of HGA, mean” value [2, 13] was 36.6 µmol/L, the “Daily average serum concentration of HGA, median” value [2, 13] was 38.6 µmol/L and the “Daily average serum concentration of HGA, min” value [2, 13] was 25.2 µmol/L. The “Daily average serum concentration of HGA, median” value [2, 14] was less than 3.1 µmol/L, the “Daily average serum concentration of HGA, min” value [2, 14] was less than 3.1 µmol/L and the “Patients with no quantifiable serum HGA concentration in any sample over the 24-hour dosage interval” value ([2]; 8 mg) was 7. For the same molecule, the “Reduction of urinary excretion on average, compared to pre-treatment levels” value [3] was “about 95%”, the “Effect on primary efficacy variable, hip rotation” value [4] was “failed to show an effect” and the “Tyrosine levels, average” value [5] was 800 µM. For the same molecule, the “Tyrosine levels, range” value [5] was 332 to 1528 µM, the “IQ of treated children versus unaffected siblings” value ([6]; children treated with nitisinone (Bendadi et al.)) was “considerably lower” and the “Cognitive impairment causing schooling difficulties, patients affected” value ([6]; school-age patients with HT-1 treated with nitisinone (Masurel-Paulet et al.)) was “eight out of 23”.
